Assay results reported in patent US6660767B2, “Coumarin compounds as microtubule stabilizing agents and therapeutic uses thereof” (The Regents of the University of California, priority 2001, dated 2003).
Entries after “also recorded” stand apart in the source; their conditions may differ. Read-outs that look alike come from different tables or passages of the source.

Assays:
S. purpuratus embryos = experiment: Inhibition of first cleavage (cell division) of sea urchin embryos; format: cell-based, Strongylocentrotus purpuratus; conditions: for inhibition of the first cleavage of S. purpuratus embryos: FIGS. 1-4; for IC50: Strongylocentrotus purpuratus, read-out: concentration required for half maximal inhibition of first cleavage
Description: (§1) Male and female Strongylocentrotus purpuratus or S. franciscanus were injected with 0.5 M KCl through the soft tissue of the oral surface into the coleomic cavity and were then cultured in filtered seawater by conventional methods in the art. See e.g. O'Brien, E. T., et al. (1989) Mol. Pharmacol. 35:635-642; and Jacobs, J. S. and L. Wilson (1986) Drugs Pharm. Sci. 27:481-493, which are herein incorporated by reference. Gametes were released into filtered seawater. The eggs were stirred and passed 3 times through a […] Nitex mesh (Tetko, Inc., Elmsford, N.Y.) to remove the jelly coating and then allowed to settle. The seawater was aspirated off and then the eggs were centrifuged for 4 minutes at 310 rpm. The eggs were resuspended at 1% (v/v) in filtered seawater and set aside. Fresh sperm were collected from the aboral surface of a male urchin. About 1 drop of concentrated sperm was collected into a test tube and 1 ml of seawater was added. A 1 ml aliquot of the sperm solution was added per 100 ml of suspended eggs and immediately mixed.
After 1 minute post-fertilization, about 1 ml of embryos were placed on a microscope slide and checked for percent fertilization under a 10× magnification with a light microscope. A visible fertilization membrane differentiates fertilized egg from the unfertilized. The fertilized embryos were then incubated with a coumarin compound no later than 5 minutes after initial fertilization. The embryos were incubated for about 2 hours at about 15° C. to about 17° C., or until the control embryos completed first division and were in the 2-cell stage. The amount of division was calculated in each test sample by counting the number of divided versus undivided embryos in a small sample of about 40 μL using the light microscope.
(§2) Quantitation of division was performed by counting the number of divided and nondivided embryos after the control embryos had progressed to the end of first cleavage (about 120 minutes after fertilization). […]

sea urchin embryos [1] = experiment: Cell cycle analysis: dicoumarol added at 10-minute intervals after fertilization; conditions: 50 μM dicoumarol added at 10-minute intervals; FIG. 5
Description: The ability of dicoumarol to block cells in mitosis, like a mitotic spindle poison, was examined. The first mitosis typically occurs between about 70 to about 90 minutes after fertilization and cytokinesis is usually complete at about 120 minutes, giving rise to two blastomeres.
Specifically, aliquots were designated T-10, T-20, . . . T-120.

sea urchin embryos [2] = experiment: Spindle microtubule and chromosome organization in sea urchin embryos (immunofluorescence, modified Balczon and Schatten); format: cell-based, S. franciscanas; conditions: 50 μM dicoumarol
Description: Sea urchin embryos prepared according to Example 1 were used to study the effect of coumarin compounds on spindle microtubule organization and chromosome organization using immunofluorescence microscopy with specific antibodies for tubulin and DAPI was used to image the chromatin. Two different sea urchin embryo assay protocols were used.
Fixation and staining of embryos for immunofluorescence microscopy were performed according to a modified method of Balczon and Schatten ((1983) Cell Motility 3:213-226, which is herein incorporated by reference). […]. After extraction for 45 minutes, the embryos were fixed for 6 minutes with −10° C. methanol. After methanol fixation, the cells were rinsed for 5 minutes in PBS and then 25 μl of anti-α-tubulin monoclonal antibody (1:100) in PBS comprising 2% bovine serum albumin was added.
The embryos were incubated at 37° C. for about 60 to about 75 minutes and rinsed for 20 minutes in PBS after which 25 μl of a secondary staining solution comprising fluoroscein isothiocynate (FITC) conjugated to an anti-mouse IgG (1:100 in PBS) and DAPI (10 μg/ml) was added. The embryos were then incubated for 60 minutes at 37° C. and then rinsed for 20 minutes in PBS. Coverslips were mounted onto the slides with a solution of Vectashield® (Vector Laboratories, Inc., Burlingame, Calif.) and sealed with nail polish. […]

tubulin = tubulin (Bos taurus, UniProt P81947+Q6B856); experiment: Turbidity (light scattering) polymerization assay with electron microscopy; format: biochemical, bovine
Sequence of tubulin (Q6B856 whole entry): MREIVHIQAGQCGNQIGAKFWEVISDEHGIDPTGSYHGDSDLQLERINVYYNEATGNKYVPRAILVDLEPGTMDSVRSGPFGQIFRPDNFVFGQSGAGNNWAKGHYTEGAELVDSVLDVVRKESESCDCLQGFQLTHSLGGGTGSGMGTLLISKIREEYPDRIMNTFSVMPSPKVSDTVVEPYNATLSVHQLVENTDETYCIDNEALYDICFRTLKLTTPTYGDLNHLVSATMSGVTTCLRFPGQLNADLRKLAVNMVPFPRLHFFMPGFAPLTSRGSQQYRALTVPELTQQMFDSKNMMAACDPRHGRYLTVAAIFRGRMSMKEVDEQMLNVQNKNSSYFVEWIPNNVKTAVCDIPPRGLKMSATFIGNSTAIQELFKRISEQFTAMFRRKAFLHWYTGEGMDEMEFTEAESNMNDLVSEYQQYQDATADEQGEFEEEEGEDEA
Sequence of tubulin (P81947 whole entry): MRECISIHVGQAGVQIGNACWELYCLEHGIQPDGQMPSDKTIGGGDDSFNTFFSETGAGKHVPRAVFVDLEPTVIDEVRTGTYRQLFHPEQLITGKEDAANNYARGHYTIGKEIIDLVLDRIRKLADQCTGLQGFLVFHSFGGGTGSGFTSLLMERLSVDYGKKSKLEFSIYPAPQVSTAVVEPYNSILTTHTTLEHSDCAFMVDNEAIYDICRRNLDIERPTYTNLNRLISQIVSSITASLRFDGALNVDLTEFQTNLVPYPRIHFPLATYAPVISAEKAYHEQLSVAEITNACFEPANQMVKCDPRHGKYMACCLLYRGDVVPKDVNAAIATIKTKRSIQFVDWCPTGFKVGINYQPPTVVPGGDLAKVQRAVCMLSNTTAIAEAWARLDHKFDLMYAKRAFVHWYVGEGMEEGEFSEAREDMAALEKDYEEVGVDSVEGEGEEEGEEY
Description: To determine the rate and extent of the ability of a test compound to promote or inhibit microtubule polymerization (change in turbidity) a coumarin compound is added to a cuvet comprising about 1 mg/ml microtubule protein. The cuvet is incubated at 37° C. for 45 minutes in a spectrophotometer equipped with a heating unit and the absorbance is measured at about 340 nm. The change in absorbance is measured at intervals of 45 seconds over the 45-minute period and compared to the absorbance change induced by 1 mM GTP.
Specifically, 1.2 mg/ml of microtubule protein was mixed with different concentrations of dicoumarol in 100 mM PIPES, 1 mM MgCl2, and 1 mM EGTA (100 mM PEM buffer), and 1 mM guanosine 5′-triphosphate. Microtubule polymerization was monitored at 37° C. by light scattering at 350 nm using a Gilford Response Spectrophotometer.
10 μl aliquots were taken from spectrophotometrically followed reaction mixtures obtained during the course of the turbidity/light scattering assays at 10, 20, and 45 minutes and applied to 200-mesh carbon coated, Formavar-treated, copper grids (Ted Pella, Inc., Redding, Calif.). The sample was followed by several drops of 0.5% uranyl acetate and excess was drained off with filter paper. The grids were then examined with a Zeiss model 10CA electron microscope.

[3] = system: Lytechinus pictus embryos; experiment: Inhibition of first cleavage of sea urchin embryos (dose-response); format: cell-based
S. franciscanus embryos = experiment: as above; format: cell-based
Description: as §1, with “Fresh sperm were collected from the aboral surface of a male urchin. About 1 drop of concentrated sperm was collected into a test tube and 1 ml of seawater was added. A 1 ml aliquot of the sperm solution was added per 100 ml of suspended eggs and immediately mixed.” left out
After 1 minute post-fertilization, about 1 ml of embryos were placed on a microscope slide and checked for percent fertilization under a 10× magnification with a light microscope. […] The amount of division was calculated in each test sample by counting the number of divided versus undivided embryos in a small sample of about 40 μL using the light microscope.
as §2

## O=c1ccc2ccc(O)cc2o1 [7-hydroxycoumarin]
S. purpuratus embryos
  inhibition of the first cleavage of S. purpuratus embryos: inhibited the first cleavage
S. purpuratus embryos; S. purpuratus embryos, first cleavage
  IC50: ~40 µM

## O=c1ccc2ccccc2o1 [coumarin]
S. purpuratus embryos
  inhibition of the first cleavage of S. purpuratus embryos: inhibited the first cleavage

## O=c1oc2ccccc2c(O)c1Cc1c(O)c2ccccc2oc1=O [dicoumarol]
Sea urchin embryos [1]
  inhibition of first cleavage versus time of addition after fertilization: rapidly declined when dicoumarol was added 90 minutes after fertilization; also recorded: blocked if added after metaphase (90 minutes)
S. purpuratus embryos
  inhibition of the first cleavage of S. purpuratus embryos: inhibited the first cleavage
  IC50: ~4 µM
S. purpuratus embryos; S. purpuratus embryos
  concentration at which cell division was completely blocked: ≥ 20 µM
S. purpuratus embryos; dicoumarol treated embryos
  lysis or morphological changes of treated embryos: no lysis or morphological changes
Sea urchin embryos [2]
  chromosome organization: disorganized chromosomes that had not congressed to the metaphase plate
  microtubules of mitotic spindles: bipolar, but appeared to be longer and located outside an intact nuclear envelope
tubulin; 100 μM dicoumarol, polymerization prolonged to 45 minutes
  microtubule formation by electron microscopy: microtubules were produced
tubulin; axonemal seeded microtubules, 20 μM dicoumarol
  microtubule formation by electron microscopy: revealed actual microtubule structures
tubulin; polymerization for 10 and 20 minutes, no axonemes
  microtubule formation by electron microscopy: No microtubules were formed
tubulin; tubulin 12 μM, dicoumarol 0 μM-80 μM, FIG. 9
  rate and extent of polymerization of tubulin (turbidity): increased the rate and extent of tubulin polymerization; also recorded: concentration-dependent increase
[3]
  dose-response curve of cleavage inhibition: identical to those obtained using S. purpuratus
S. franciscanus embryos
  dose-response curve of cleavage inhibition: identical to those obtained using S. purpuratus

## CC(=O)CC(c1ccccc1)c1c(O)c2ccccc2oc1=O (centres unmarked) [warfarin]
S. purpuratus embryos
  inhibition of the first cleavage of S. purpuratus embryos: inhibited the first cleavage
